Source: US9555038B2, “Heterocycle-substituted tetracyclic compounds and methods of use thereof for the treatment of viral diseases” (Merck Sharp & Dohme Corp., priority 2013, dated 2017)
pIC50: −log10 of the molar value. Like-named read-outs stand apart in the source and are kept apart here.

How the values were obtained:
HCV replicon 2B = test: Cell-based HCV Replicon Assay A, replicon 2B; details: for pIC50: read-out: 2B IC50, replicon 2B; for IC50: Hepatitis C virus, read-out: 2B IC50 (nM), replicon 2B
Outline: (§1)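 Replicon cells seeded at 2000 cells/well with compound, 10 serial dilutions starting at 333.3 nM to 1.667 nM, 0.5% DMSO, 5% FBS, harvested on day 3. Replicon RNA measured by multiplex TaqMan RT-PCR with cyclophilin as endogenous control, quantified from standard curves of Ct vs log ng RNA.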

HCV replicon 1AY93H = test: Cell-based HCV Replicon Assay A, replicon 1AY93H; details: for pIC50: read-out: 1A Y93H IC50, replicon 1AY93H; for IC50: Hepatitis C virus, read-out: 1A Y93H IC50 (nM), replicon 1AY93H
Outline: as §1

HCV replicon 1AQ30D = test: Cell-based HCV Replicon Assay B, replicon 1AQ30D; details: for pIC50: read-out: 1A Q30D IC50, replicon 1AQ30D; for IC50: Hepatitis C virus, read-out: 1A Q30D IC50 (nM), replicon 1AQ30D
Experimental: In an alternate assay (“Replicon Assay B”), 1000 cells were seeded per well in a 384-well collagen coated black plate from Greiner bio-one (Cat #781946) in 5% FBS. Inhibitors of this invention were added at 24 h post-seeding, and the plates were incubated for 3 days. Cells were subsequently lysed with Qiagen lysis buffer (Cat #1062731) to extract the RNA. HCV replicon RNA level was measured by real-time PCR using the RNA-to-CT kit from Applied Biosystem (Cat #4392656) and genotype-specific primers and probes. The amplicon was located within NS5B. The sequence of the PCR primers are as follows: 5B.2F, ATGGACAGGCGCCCTGA (SEQ. ID NO. 1); 5B.2R, […] (SEQ. ID NO. 2); the probe sequence was FAM-labeled CACGCCATGCGCTGCGG (SEQ. ID NO. 3). To detect genotype 1A the primer 1A F, TGCGGAACCGGTGAGTACA and 1A R, […] were used; the probe sequence was FAM-[…].
The real-time RT-PCR reactions were run on ABI PRISM 7900HT or Viia7 Sequence Detection System using the following program: 48° C. for 30 minutes, 95° C. for 10 minutes, 40 cycles of 95° C. for 15 sec, 60° C. for 1 minutes. The 50% effective concentration (EC50) was the drug concentration necessary to achieve an increase in the cycle threshold (CT) of 1 over the projected baseline CT.
Data was obtained for various compounds of the present invention using the methods described in the Example above, and is presented in the table immediately below. Data for replicons 1A, 1AY93H and 2B were obtained using Replicon Assay A and data for replicons 1AQ30D and 1B were obtained using Replicon Assay B.

HCV replicon 1B = test: Cell-based HCV Replicon Assay B, replicon 1B
Outline: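 Replicon cells seeded in 5% FBS; compounds added 24 h later, then 3 days' incubation. Replicon RNA quantified by real-time RT-PCR with genotype-specific primers/probes (NS5B amplicon for 1b). EC50 = concentration raising CT by 1 over projected baseline.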

HCV replicon 1A = test: Cell-based HCV Replicon Assay A, replicon 1A
Outline: as §1

Row | SMILES | pIC50 (HCV replicon 2B) | pIC50 (HCV replicon 1AY93H) | pIC50 (HCV replicon 1AQ30D) | pIC50 (HCV replicon 1B) | pIC50 (HCV replicon 1A) | IC50 (HCV replicon 1AQ30D) [nM] | pIC50 (HCV replicon 1B; Hepatitis C virus) | pIC50 (HCV replicon 1A; Hepatitis C virus) | IC50 (HCV replicon 2B) [nM] | IC50 (HCV replicon 1AY93H) [nM]
1 | CCc1ncc(C2Oc3cc(-c4cnc([C@@H]5CCCN5C(=O)[C@@H](NC(=O)OC)C(C)C)[nH]4)cc(F)c3-c3cc4cc(-c5cnc([C@@H]6C[C@H]7C[C@H]7N6C(=O)[C@@H](NC(=O)OC)C6C[C@@H](C)O[C@@H](C)C6)[nH]5)ccc4n32)s1 (single isomer, unassigned) [Compound 97] | 10.01 | 10.56 | 9.54 | 11.52 | 11.60 |  |  |  |  | 
2 | COC(=O)NC(C(=O)N1CCC[C@H]1c1ncc(-c2ccc3c(c2)cc2n3C(c3cnc(C4(C)CCCC4)s3)Oc3cc(-c4cnc([C@@H]5CCCN5C(=O)[C@@H](NC(=O)OC)C(C)C)[nH]4)cc(F)c3-2)[nH]1)C1CCOC(C)(C)C1 (single isomer, unassigned) [Compound 472] | 9.82 | 9.26 | 8.57 | 11.44 | 11.68 |  |  |  |  | 
3 | COC(=O)NC(C(=O)N1CCC[C@H]1c1ncc(-c2ccc3c(c2)cc2n3C(c3cnc(C4CCOCC4)s3)Oc3cc(-c4cnc([C@@H]5CCCN5C(=O)[C@@H](NC(=O)OC)C(C)C)[nH]4)cc(F)c3-2)[nH]1)C1CCOC(C)(C)C1 (single isomer, unassigned) [Compound 449] | 10.36 | 10.19 | 9.13 | 11.47 | 11.37 |  |  |  |  | 
4 | COC(=O)NC(C(=O)N1CCC[C@H]1c1ncc(-c2ccc3c(c2)cc2n3C(c3nc(C(F)(F)F)cs3)Oc3cc(-c4cnc([C@@H]5CCCN5C(=O)[C@@H](NC(=O)OC)C(C)C)[nH]4)cc(F)c3-2)[nH]1)C1C[C@@H](C)O[C@@H](C)C1 (single isomer, unassigned) [Compound 76] | 9.85 | 10.49 |  |  | 11.57 | 0.422 | 11.52 |  |  | 
5 | COC(=O)NC(C(=O)N1[C@@H]2C[C@@H]2C[C@H]1c1ncc(-c2ccc3c(c2)c(F)c2n3C(c3cnc(C4CC4)s3)Oc3cc(-c4cnc([C@@H]5CCCN5C(=O)[C@@H](NC(=O)OC)C(C)C)[nH]4)cc(F)c3-2)[nH]1)C1CCOC(C)(C)C1 (single isomer, unassigned) [Compound 112] | 11.40 | 11.36 |  |  |  | 0.036 | 11.52 | 11.72 |  | 
6 | COC(=O)N[C@H](C(=O)N1CCC[C@H]1c1ncc(-c2cc(F)c3c(c2)OC(c2cnc(C4CC4)s2)n2c-3cc3cc(-c4cnc([C@@H]5CCCN5C(=O)[C@@H](NC(=O)OC)C(C)C)[nH]4)ccc32)[nH]1)C(C)C (single isomer, unassigned) [Compound 10] | 10.96 | 11.46 |  |  | 11.85 | 0.097 | 11.70 |  |  | 
7 | COC(=O)NC(C(=O)N1[C@@H]2C[C@@H]2C[C@H]1c1ncc(-c2ccc3c(c2)cc2n3C(c3cnc(C4CC4)s3)Oc3cc(-c4cnc([C@@H]5CCCN5C(=O)[C@@H](NC(=O)OC)C(C)C)[nH]4)cc(F)c3-2)[nH]1)C1C[C@@H](C)O[C@@H](C)C1 (single isomer, unassigned) [Compound 310] | 9.92 | 10.02 | 9.09 |  |  |  | 11.52 | 11.59 |  | 
8 | CCc1ncc(C2Oc3cc(-c4cnc([C@@H]5CCCN5C(=O)[C@@H](NC(=O)OC)C(C)C)[nH]4)cc(F)c3-c3cc4cc(-c5cnc([C@@H]6C[C@H]7C[C@H]7N6C(=O)[C@@H](CC(=O)OC)C(C)C)[nH]5)ccc4n32)s1 (single isomer, unassigned) [Compound 83] | 10.32 | 11.17 |  |  |  | 0.12 | 11.52 | 11.52 |  | 
9 | COC(=O)N[C@H](C(=O)N1CCC[C@H]1c1ncc(-c2cc(F)c3c(c2)OC(c2cnc(C(C)C)s2)n2c-3cc3cc(-c4cnc([C@@H]5C[C@H]6C[C@H]6N5C(=O)[C@@H](NC(=O)OC)C(C)C)[nH]4)ccc32)[nH]1)C(C)C (single isomer, unassigned) [Compound 89] |  |  |  |  |  | 0.081 | 11.52 | 11.77 | 0.029 | 0.0028
10 | CCCc1ncc(C2Oc3cc(-c4cnc([C@@H]5CCCN5C(=O)[C@@H](NC(=O)OC)C(C)C)[nH]4)cc(F)c3-c3cc4cc(-c5cnc([C@@H]6C[C@H]7C[C@H]7N6C(=O)C(NC(=O)OC)C6CCOC(C)(C)C6)[nH]5)ccc4n32)s1 (single isomer, unassigned) [Compound 106] | 10.17 | 10.47 | 9.55 | 11.30 | 11.49 |  |  |  |  | 
11 | COC(=O)NC(C(=O)N1CCC[C@H]1c1ncc(-c2ccc3c(c2)cc2n3C(c3cnc(C4CC4)s3)Oc3cc(-c4cnc([C@@H]5CCCN5C(=O)[C@@H](NC(=O)OC)C(C)C)[nH]4)cc(F)c3-2)[nH]1)C1C[C@@H](C)O[C@@H](C)C1 (single isomer, unassigned) [Compound 307] | 11.22 | 11.08 |  |  | 11.38 | 0.047 | 11.30 |  |  | 
12 | COC(=O)N[C@H](C(=O)N1CCC[C@H]1c1ncc(-c2cc(F)c3c(c2)OC(c2cnc(C4CCCCC4)s2)n2c-3cc3cc(-c4cnc([C@@H]5CCCN5C(=O)[C@@H](NC(=O)OC)C(C)C)[nH]4)ccc32)[nH]1)C(C)C (some centres unmarked) [Compound 527] | 10.85 | 11.30 |  |  |  | 0.065 | 11.54 | 11.62 |  | 
13 | COC(=O)NC(C(=O)N1CCC[C@H]1c1ncc(-c2ccc3c(c2)cc2n3C(c3cnc(C4CC4)s3)Oc3cc(-c4cnc([C@@H]5CCCN5C(=O)[C@@H](NC(=O)OC)C(C)C)[nH]4)cc(C)c3-2)[nH]1)C1CCOC(C)(C)C1 (single isomer, unassigned) [Compound 214] |  |  |  |  |  | 0.44 | 11.10 | 11.57 | 0.004 | 0.02
14 | COC(=O)NC(C(=O)N1CCC[C@H]1c1ncc(-c2ccc3c(c2)cc2n3C(c3cnc(C4(C)CCCC4)s3)Oc3cc(-c4cnc([C@@H]5CCCN5C(=O)[C@@H](NC(=O)OC)C(C)C)[nH]4)cc(F)c3-2)[nH]1)C1C[C@@H](C)O[C@@H](C)C1 (single isomer, unassigned) [Compound 469] | 11.30 | 11.70 |  |  |  | 0.019 | 11.47 | 11.52 |  | 
15 | CCc1ncc(C2Oc3cc(-c4cnc([C@@H]5CCCN5C(=O)[C@@H](NC(=O)OC)C(C)C)[nH]4)cc(F)c3-c3cc4cc(-c5cnc([C@@H]6C[C@H]7C[C@H]7N6C(=O)C(NC(=O)OC)C6CCOC(C)(C)C6)[nH]5)ccc4n32)s1 (single isomer, unassigned) [Compound 94] | 11.40 | 11.46 | 10.35 | 11.52 | 11.52 |  |  |  |  | 
16 | CCCc1ncc(C2Oc3cc(-c4cnc([C@@H]5CCCN5C(=O)[C@@H](NC(=O)OC)C(C)C)[nH]4)cc(F)c3-c3cc4cc(-c5cnc([C@@H]6C[C@H]7C[C@H]7N6C(=O)C(NC(=O)OC)C6C[C@@H](C)O[C@@H](C)C6)[nH]5)ccc4n32)s1 (single isomer, unassigned) [Compound 109] | 10.16 | 10.52 | 9.75 | 11.40 | 11.47 |  |  |  |  | 
17 | COC(=O)NC(C(=O)N1[C@@H]2C[C@@H]2C[C@H]1c1ncc(-c2ccc3c(c2)cc2n3C(c3cnc(C4CC4)s3)Oc3cc(-c4cnc([C@@H]5CCCN5C(=O)[C@@H](NC(=O)OC)C(C)C)[nH]4)cc(F)c3-2)[nH]1)C(C)(C)F (single isomer, unassigned) [Compound 28] | 9.69 | 9.94 | 9.04 | 11.70 | 11.92 |  |  |  |  | 
18 | CCCc1ncc(C2Oc3cc(-c4cnc([C@@H]5CCCN5C(=O)[C@@H](NC(=O)OC)C(C)C)[nH]4)cc(C)c3-c3cc4cc(-c5cnc([C@@H]6C[C@H]7C[C@H]7N6C(=O)[C@@H](NC(=O)OC)C(C)C)[nH]5)ccc4n32)s1 (single isomer, unassigned) [Compound 206] | 10.52 | 10.64 |  |  | 11.15 | 0.83 | 11.40 |  |  | 
19 | COC(=O)N[C@H](C(=O)N1CCC[C@H]1c1ncc(-c2cc(C)c3c(c2)OC(c2cnc(C4CCC4)s2)n2c-3cc3cc(-c4cnc([C@@H]5CCCN5C(=O)[C@@H](NC(=O)OC)C(C)C)[nH]4)ccc32)[nH]1)C(C)C (single isomer, unassigned) [Compound 204] |  |  |  |  |  | 0.772 | 11.70 | 11.40 | 0.013 | 0.0579
